Assay results taken from US10577428B2, “Anti-factor XI monoclonal antibodies and methods of use thereof” (Oregon Health & Science University, priority 2007, dated 2020).

Legend:
[1] = tested on: baboons (Papio anubis); experiment: Vascular graft occlusion studies, collagen coated 2 mm i.d. grafts, high arterial shear; assay type: in vivo, baboon (Papio anubis)
Description: Thrombus formation was initiated within the baboon AV shunt by interposing a thrombogenic segment of prosthetic vascular graft (ePTFE, WL Gore & Co., Flagstaff, Ariz.), as previously described (Hanson et al. (1993) J. Clin. Invest. 92:2003-2012). To consistently trigger platelet-dependent thrombus formation, the clinical graft segments were coated with immobilized collagen. Twenty mm long grafts having internal diameters (i.d.) of either 2 or 4 mm were filled with equine type I collagen (1 mg/ml; Nycomed Arzenmittel, Munich, Germany) for 15 min, and then dried overnight under sterile airflow. This method produced a uniform collagen coating within the graft lumen as determined by scanning electron microscopy (FIGS. 1B and 1C). The thrombogenic collagen-coated grafts were then incorporated between segments of silicon rubber tubing, and deployed into the AV shunts (FIG. 1A). The grafts were exposed to blood for up to 60 min. During each experiment, the blood flow rate through the graft was restricted to 100 ml/min by clamping the proximal silicone rubber shunt segment, thereby producing a mean wall shear rate (MWSR) in the 4 mm grafts of 265 s^−1, while in the 2 mm grafts the initial MWSR was 2120 s^−1. Flow rates were continuously monitored using an ultrasonic flow meter (Transonics Systems, Ithaca, N.Y.). […] Baseline blood flow was restored through the permanent shunt after each experiment. In the 2 mm diameter grafts blood flow rates progressively declined due to thrombus formation. The grafts were removed from the AV shunts when the flow rate fell from 100 ml/min to below 20 ml/min, signaling imminent occlusion. The time from initiation of blood flow to graft removal (<20 ml/min blood flow) was taken as the occlusion time.
Occlusion studies were performed using 10 mm long 2 mm i.d. collagen coated devices which produced high arterial shear rates (2120 s^−1 at 100 ml/min clamped blood flow). Accumulation of labeled platelets onto 2 mm thrombogenic grafts were measured in 3-min intervals using a gamma scintillation camera. Flow was maintained at 100 ml/min by proximal clamping for as long as possible, and then allowed to decrease as the propagating thrombus began to occlude the device. A final blood flow rate of 20 ml/min was used as a cutoff for occlusion, since a fully occlusive thrombi and lack of blood flow through the device could lead to occlusion of the shunt and a significant loss of blood for the animals.
Since aspirin is a less antihemostatic agent than heparin, and it is often included in the standard treatment of arterial-type platelet-dependent thrombosis, ASA was used in the current studies with the occlusion-prone 2 mm i.d. grafts as a long-acting positive control. ASA (32 mg/kg) was administered orally 2-4 h before each thrombosis experiment, as described previously (Hanson et al. (1985) J. Clin. Invest. 75:1591-1599). Four weeks were allowed for washout of each aXIMab and ASA before performing new experiments in the same animal.

[2] = tested on: baboons; experiment: Standard template skin bleeding time test (Surgicutt); assay type: in vivo, baboon
Description: The effects of FXI inhibition and aspirin on primary hemostasis in baboons were assessed using the standard template skin bleeding time test (Surgicutt®, International Technidyne Corp). […] All bleeding time measurements were performed by the same expert technician. For indirect assessment of hemostasis, aPTT and PT measurements were also performed.

[3] = tested on: baboons; experiment: Observation for adverse reactions and bleeding events; assay type: in vivo, baboon; conditions: one week follow-up periods of observation
[4] = tested on: baboons; experiment: Effect of locally infused PPACK during local sampling; assay type: in vivo, baboon; conditions: PPACK 0.5 mg/ml infused locally at 20 μl/min
Description: A novel local sampling method was used to assess the local production of thrombogenic mediators by sampling blood that superfused propagating experimental thrombi. […] All blood samples were collected into 1/10th volume 3.8% citrate anticoagulant. Systemic samples (1 ml each) were collected before initiation of thrombosis as well as 30 and 60 min into each study. A total of 6 local blood samples were drawn from the peripheral blood IBL at a rate of 100 μl/min over 10 min intervals out of a 0.64 mm port which was located 10 mm distal to the growing thrombus (FIG. 1A). […] Infusion and sampling were regulated by syringe pumps (Harvard Apparatus). Local sampling was performed only with the 4 mm i.d. devices in this study.

Structure (SMILES)	platelet deposition ([1]; 2 mm i.d. grafts)	Number occluded ([1]; 2 mm i.d. grafts, 60 min)	Embolic events per experiment ([1]; 2 mm i.d. grafts, mean ± SEM)	Fibrin deposition ([1]; 2 mm i.d. grafts, mean ± SEM, control 0.30 ± 0.04)	grafts remained patent ([1]; 2 mm i.d. grafts, over 60 min)	time to graft occlusion prolonged by (average) ([1]; in 4 grafts, ASA 32 mg/kg orally)	effect on bleeding time / hemostasis ([2]; FIG. 6, compared with no treatment controls)	standard template bleeding time ([2]; vehicle-treated controls 3.4±0.2 min)	adverse bleeding events [3]	systemic prothrombin times (PT) or activated partial thromboplastin times (aPTT) [4]
CC(=O)Oc1ccccc1C(=O)O [ASA, acetylsalicylic acid, reference compound]	reduced platelet deposition	4/6	1.5 ± 0.6	0.23 ± 0.04 mg	2	18 min	prolonged the bleeding time	6.4 ± 0.7 min	No re-bleeding phenomena, petechiae, hematomas or other adverse bleeding events	–
NC(N)=NCCC[C@H](NC(=O)[C@@H]1CCCN1C(=O)[C@H](N)Cc1ccccc1)C(=O)CCl [PPACK, Phe-Pro-Arg-chloromethylketone]	–	–	–	–	–	–	–	–	–	did not affect
